Here are results for 46 compounds from patent US20090215777A1, “Pyrimidine Derivatives As HSP90 Inhibitors” (Astex Therapeutics Ltd., priority 2005, published 2009).

The assay has as its target T1, human Hsp90α N-terminal domain (Homo sapiens, UniProt P07900).
T1 construct: Cloning, expression, and purification of the Human Hsp90α N-terminal domain were performed according to published methods; made in house
Briefly: Isothermal titration calorimetry (ITC). The format is binding. To be noted: 25 mM Tris, 100 mM NaCl, 1 mM MgCl2, 1 mM TCEP, 5% DMSO, pH 7.4. The procedure:
The ability of the compounds of the invention to bind to human Hsp90 proteins was determined using isothermal titration calorimetry.
Isothermal titration calorimetry (ITC) experiments were performed with a VP-ITC titration calorimeter (Microcal Inc., Northampton, Mass., USA). […] All solutions were filtered and degassed prior to a titration being carried out. The enthalpy change resulting from each injection of ligand was obtained through integration of the calorimetric signal. Data were analysed using Origin 7.0 (Microcal Software Inc., Northampton, Mass.). Heats of dilution were estimated using the final injections of each individual titration and subtracted before data fitting. Different ITC experimental formats were employed in order to obtain compound dissociation constants (Kd's) over a wide range of affinities. […] In this type of experiment the stoichiometry parameter (N) was locked at 1 for data fitting.

For orientation: Kd means the free concentration of one partner at which half of the binding sites on the other are occupied at equilibrium, for simple one-to-one binding. Higher therefore signals a looser complex. Consider `CCOc1ccc(-c2cc(Cl)nc(N)n2)c(Cl)c1` [Example 29], for which the Kd was under 1000 nM.

In turn, `CN(C)CCOc1cccc(Cl)c1-c1cc(Cl)nc(N)n1` [Example 55, 4-Chloro-6-[2-chloro-6-(2-dimethylamino-ethoxy)-phenyl]-pyrimidin-2-yl amine] came in with a Kd of under 1000 nM.

Compound `Nc1nc(Cl)cc(-c2cc(OCCN3CCOCC3)c(Cl)cc2Cl)n1` [Example 80, 4-Chloro-6-[2,4-dichloro-5-(2-morpholin-4-yl-ethoxy)-phenyl]-pyrimidin-2-yl-amine] yielded a Kd of under 1000 nM.

Take `CCOC(=O)COc1ccc(-c2cc(Cl)nc(N)n2)c(Cl)c1` [Example 66, [4-(2-Amino-6-chloropyrimidin-4-yl)-3-chloro-phenoxy]-acetic acid ethyl ester]: the Kd was under 1000 nM.

As for `CC(C)(C)OC(=O)NCCCOc1cccc(Cl)c1-c1cc(Cl)nc(N)n1` [Example 53, {3-[2-(2-Amino-6-chloro-pyrimidin-4-yl)-3-chloro-phenoxy]-propyl}-carbamic acid tert-butyl ester], the dissociation constant (Kd) is under 1000 nM.

The compound `CCOC(=O)C(C)Oc1ccc(-c2cc(Cl)nc(N)n2)c(Cl)c1` (stereo not shown) [Example 67] came in with a dissociation constant (Kd) of under 1000 nM.

On to `Cc1cccc(-c2cc(Cl)nc(N)n2)c1Cl` [Example 76, 4-Chloro-6-(2-chloro-3-methyl-phenyl)-pyrimidin-2-yl-amine], for which the Kd was under 1000 nM.

Consider `COc1cccc(OCC2CCOCC2)c1-c1cc(Cl)nc(N)n1` [Example 21, 4-Chloro-6-[2-methoxy-6-(tetrahydro-pyran-4-yl-methoxy)-phenyl]-pyrimidin-2-yl-amine], for which the Kd is under 1000 nM.

`COc1ccc(-c2ccccc2)c(OC)c1-c1cc(Cl)nc(N)n1` [Example 45, 4-Chloro-6-(2,4-dimethoxy-biphenyl-3-yl)-pyrimidin-2-ylamine] returned an equilibrium dissociation constant (Kd) of under 10000 nM.

As to `COc1ccc(Cl)c(-c2cc(Cl)nc(N)n2)c1` [Example 49, 4-Chloro-6-(2-chloro-5-methoxy-phenyl)-pyrimidin-2-ylamine], the equilibrium dissociation constant (Kd) is under 1000 nM.

`CC(C)(C)OC(=O)NCCOc1cccc(Cl)c1-c1cc(Cl)nc(N)n1` [Example 57] returned a Kd of under 1000 nM.

In turn, `CCOC(=O)C(C)(C)Oc1ccc(-c2cc(Cl)nc(N)n2)c(Cl)c1` [Example 68, 2-[4-(2-Amino-6-chloro-pyrimidin-4-yl)-3-chloro-phenoxy]-2-methyl-propionic acid ethyl ester] registered a Kd of under 1000 nM.

`CC(C)Oc1ccc(-c2cc(Cl)nc(N)n2)c(Cl)c1` [Example 65, 4-Chloro-6-(2-chloro-4-isopropoxy-phenyl)-pyrimidin-2-ylamine] gave a Kd of under 1000 nM.

As to `Nc1nc(Cl)cc(-c2ccc(O)cc2Cl)n1` [Example 64, 4-(2-Amino-6-chloro-pyrimidin-4-yl)-3-chloro-phenol], the equilibrium dissociation constant (Kd) is under 1000 nM.

On to `COc1cccc(-c2cc(Cl)nc(N)n2)c1Cl` [Example 69, 4-Chloro-6-(2-chloro-3-methoxy-phenyl)-pyrimidin-2-yl-amine], for which the Kd was under 1000 nM.

`CCOc1ccc2ccccc2c1-c1cc(Cl)nc(N)n1` [Example 44, 4-Chloro-6-(2-ethoxy-naphthalen-1-yl)-pyrimidin-2-ylamine] yielded a Kd of under 10000 nM.

In the case of `Nc1ncc(Br)c(-c2ccc(Cl)cc2Cl)n1` [Example 62, 5-Bromo-4-(2,4-dichloro-phenyl)-pyrimidin-2-ylamine], the dissociation constant Kd is under 30000 nM.

For the compound `CC(C)(C)OC(=O)N1CCC(COC(=O)C(C)(C)Oc2ccc(-c3cc(Cl)nc(N)n3)c(Cl)c2)CC1` [Example 82, 4-{2-[4-(2-Amino-6-chloro-pyrimidin-4-yl)-3-chloro-phenoxy]-2-methyl-propionyloxy-methyl}-piperidine-1-carboxylic acid tert-butyl ester], the dissociation constant Kd is under 1000 nM.

`COc1ccccc1-c1cc(C(F)F)nc(N)n1` [Example 58, 4-Difluoro-methyl-6-(2-methoxy-phenyl)-pyrimidin-2-ylamine] returned a Kd of under 30000 nM.

In the case of `COc1ccc(-c2cc(Cl)nc(N)n2)c(Cl)c1` [Example 73, 4-Chloro-6-(2-chloro-4-methoxy-phenyl)-pyrimidin-2-ylamine], the Kd was under 1000 nM.

With `Nc1nc(Cl)cc(-c2cc(O)c(Cl)cc2Cl)n1` [Example 77, 5-(2-Amino-6-chloro-pyrimidin-4-yl)-2,4-dichloro-phenol], the Kd is under 1000 nM.

`CCN(CC)CCOc1cc(-c2cc(Cl)nc(N)n2)c(Cl)cc1Cl` [Example 79, 4-Chloro-6-[2,4-dichloro-5-(2-diethylamino-ethoxy)-phenyl]-pyrimidin-2-yl-amine] registered an equilibrium dissociation constant (Kd) of under 1000 nM.

As for `NCCOc1cccc(Cl)c1-c1cc(Cl)nc(N)n1` [Example 56, 4-[2-(2-Amino-ethoxy)-6-chloro-phenyl]-6-chloro-pyrimidin-2-yl-amine], the Kd is under 1000 nM.

`COc1cccc(OCC(C)C)c1-c1cc(Cl)nc(N)n1` [Example 47, 4-Chloro-6-(2-isobutoxy-6-methoxy-phenyl)-pyrimidin-2-ylamine] registered an equilibrium dissociation constant (Kd) of under 1000 nM.

Compound `CC(C)(Oc1ccc(-c2cc(Cl)nc(N)n2)c(Cl)c1)C(=O)OCC1CCNCC1` [Example 83, 2-[4-(2-Amino-6-chloro-pyrimidin-4-yl)-3-chloro-phenoxy]-2-methyl-prop-ionic acid piperidin-4-ylmethyl ester] returned a dissociation constant Kd of under 1000 nM.

The compound `COc1cc(-c2cc(Cl)nc(N)n2)c(Cl)cc1Cl` [Example 61, 4-Chloro-6-(2,4-dichloro-5-methoxy-phenyl)-pyrimidin-2-ylamine] gave a Kd of under 1000 nM.

With `CC(C)(C)Cc1cccc(-c2cc(Cl)nc(N)n2)c1Cl` [Example 72, 4-Chloro-6-[2-chloro-3-(2,2-dimethyl-propyl)phenyl]-pyrimidin-2-yl-amine], the dissociation constant Kd is under 1000 nM.

For the compound `CC(C#N)Oc1ccc(-c2cc(Cl)nc(N)n2)c(Cl)c1` (stereo not shown) [Example 75, 2-[4-(2-Amino-6-chloro-pyrimidin-4-yl)-3-chloro-phenoxy]-propionitrile], the Kd is under 1000 nM.

Consider `COc1cc(Cl)cc(Cl)c1-c1cc(Cl)nc(N)n1` [Example 59, 4-Chloro-6-(2,4-dichloro-6-methoxy-phenyl)-pyrimidin-2-ylamine], for which the Kd was under 1000 nM.

As for `COc1ccc2ccccc2c1-c1cc(Cl)nc(N)n1` [Example 51, 4-Chloro-6-(2-methoxy-naphthalen-1-yl)-pyrimidin-2-ylamine], the dissociation constant (Kd) is under 1000 nM.

`COc1cc(OC)c(-c2cc(Cl)nc(N)n2)c(OC)c1` [Example 27, 4-Chloro-6-(2,4,6-trimethoxy-phenyl)-pyrimidin-2-yl-amine]: the dissociation constant Kd is under 1000 nM.

`COc1cccc(OC)c1-c1cc(C)nc(N)n1` [Example 1, 4-(2,6-Dimethoxy-phenyl)-6-methyl-pyrimidin-2-ylamine] displayed a dissociation constant (Kd) of under 10000 nM.

Consider `Nc1nccc(-c2ccc(Cl)cc2Cl)n1` [Example 60, 4-(2,4-Dichloro-phenyl)-pyrimidin-2-ylamine], for which the equilibrium dissociation constant (Kd) was under 10000 nM.

As to `COc1cccc(OCCN2CCCCC2)c1-c1cc(Cl)nc(N)n1` [Example 52, 4-Chloro-6-[2-methoxy-6-(2-piperidin-1-yl-ethoxy)-phenyl]-pyrimidin-2-ylamine], the Kd was under 10000 nM.

`COc1c(CC(C)(C)C)cccc1-c1cc(Cl)nc(N)n1` [Example 71, 4-Chloro-6-[3-(2,2-dimethyl-propyl)-2-methoxy-phenyl]-pyrimidin-2-yl-amine]: the Kd is under 1000 nM.

As for `CN(C)CCOc1ccc(-c2cc(Cl)nc(N)n2)c(Cl)c1` [Example 74, 4-Chloro-6-[2-chloro-4-(2-dimethylamino-ethoxy)-phenyl]-pyrimidin-2-yl amine], the Kd is under 10000 nM.

Consider `Nc1nc(Cl)cc(-c2ccc(Cl)cc2Cl)n1` [Example 30, 4-Chloro-6-(2,4-dichloro-phenyl)-pyrimidin-2-yl-amine], for which the dissociation constant (Kd) is under 1000 nM.

In turn, `COc1ccc(-c2c(OC)ccc(Br)c2OC)c(OC)c1-c1cc(Cl)nc(N)n1` [Example 46, 4-(3′-Bromo-2,4,2′,6′-tetramethoxy-biphenyl-3-yl)-6-chloro-pyrimidin-2-ylamine] showed a Kd of under 1000 nM.

`Nc1nc(Cl)cc(-c2ccncc2Cl)n1` [Example 50, 4-Chloro-6-(3-chloro-pyridin-4-yl)-pyrimidin-2-ylamine] came in with a Kd of under 1000 nM.

Compound `Nc1nc(Cl)cc(-c2cc(OCc3ccccc3)c(Cl)cc2Cl)n1` [Example 78, 4-(5-Benzyloxy-2,4-dichloro-phenyl)-6-chloro-pyrimidin-2-yl-amine] returned a dissociation constant (Kd) of under 1000 nM.

In turn, `NC(=O)COc1cc(-c2cc(Cl)nc(N)n2)c(Cl)cc1Cl` [Example 81, 2-[5-(2-Amino-6-chloro-pyrimidin-4-yl)-2,4-dichloro-phenoxy]-acetamide] showed a Kd of under 1000 nM.

`Nc1ncc(-c2cn[nH]c2)c(-c2ccc(Cl)cc2Cl)n1` [Example 63, 4-(2,4-Dichloro-phenyl)-5-(1H-pyrazol-4-yl)-pyrimidin-2-ylamine] returned a dissociation constant (Kd) of under 10000 nM.

The compound `COc1cccc(OC)c1-c1cc(Cl)nc(N)n1` [Example 4, 4-Chloro-6-(2,6-dimethoxy-phenyl)-pyrimidin-2-ylamine] registered a Kd of under 1000 nM.

`COc1cccc(-c2cc(Cl)nc(N)n2)c1OC` [Example 70, 4-Chloro-6-(2,3-dimethoxy-phenyl)-pyrimidin-2-yl-amine] came in with a Kd of under 1000 nM.

Take `COc1cccc(OCCN2CCOCC2)c1-c1cc(Cl)nc(N)n1` [Example 48, 4-Chloro-6-[2-methoxy-6-(2-morpholin-4-yl-ethoxy)-phenyl]-pyrimidin-2-ylamine]: the dissociation constant (Kd) is under 1000 nM.

As for `CN(C)CCCOc1cccc(Cl)c1-c1cc(Cl)nc(N)n1` [Example 54], the equilibrium dissociation constant (Kd) was under 1000 nM.
